{"source": "paper PMC11210663", "about": "(Emerging Infectious Diseases, 2024)", "key": {"[1]": {"tested_on": "influenza A(H1N1)pdm09 virus isolates with NA-I223V + S247N", "type": "biochemical"}, "[2]": {"tested_on": "influenza A(H1N1)pdm09 virus isolates with NA-I223V", "type": "biochemical"}, "[3]": {"tested_on": "influenza A(H1N1)pdm09 virus isolates with NA-S247N", "type": "biochemical"}, "[4]": {"tested_on": "influenza A(H1N1)pdm09 virus isolates with NA-I223V + S247N", "type": "cell-based"}, "[5]": {"tested_on": "influenza A(H1N1)pdm09 virus isolates with NA-S247N", "type": "cell-based"}, "[6]": {"tested_on": "influenza A(H1N1)pdm09 virus isolates with NA-I223V", "type": "cell-based"}, "[7]": {"settings": "read-out: NA inhibitors IC50, average ± SD"}}, "note": "Entries after “also recorded” stand apart in the source; their conditions may differ.", "data": [{"molecule": "CCC(CC)[C@H](NC(C)=O)[C@@H]1[C@H](O)[C@@H](C(=O)O)C[C@H]1N=C(N)N", "note": "[Peramivir, peramivir]", "values": [{"measurement": "NA inhibitors IC50 fold change", "setting": "[1]", "result": "0.29 ± 0.01 (4) fold"}, {"measurement": "IC50", "setting": "[1]; [7]", "result": 0.29, "unit": "nM"}, {"measurement": "NA inhibitors IC50 fold change", "setting": "[2]", "result": "0.08 ± 0.01 (1) fold"}, {"measurement": "IC50", "setting": "[2]; [7]", "result": 0.08, "unit": "nM"}, {"measurement": "NA inhibitors IC50 fold change", "setting": "[3]", "result": "0.19 ± 0.01 (3) fold"}, {"measurement": "IC50", "setting": "[3]; [7]", "result": 0.19, "unit": "nM"}]}, {"molecule": "O=C1c2c(O)c(=O)ccn2N([C@@H]2c3ccccc3SCc3c2ccc(F)c3F)[C@@H]2COCCN12", "note": "[baloxavir]", "values": [{"measurement": "susceptibility to baloxavir", "setting": "[4]", "result": "retained susceptibility; also recorded: susceptible"}, {"measurement": "susceptibility to baloxavir", "setting": "[5]", "result": "susceptible"}, {"measurement": "susceptibility to baloxavir", "setting": "[6]", "result": "susceptible"}]}, {"molecule": "CCOC(=O)C1=C[C@@H](OC(CC)CC)[C@H](NC(C)=O)[C@@H](N)C1", "note": "[Oseltamivir, oseltamivir]", "values": [{"measurement": "susceptibility to antiviral drugs", "setting": "[1]", "result": "reduced susceptibility"}]}]}
